Reference: patent US10781181B2, “N-((het) arylmethyl)-heteroaryl-carboxamides compounds as plasma kallikrein inhibitors” (Kalvista Pharmaceuticals Limited, priority 2014, dated 2020)

Legend:
Format in all cases: biochemical
Human plasma kallikrein = Human plasma kallikrein (Homo sapiens (Human), UniProt P03952); experiment: Determination of the IC50 for plasma kallikrein; details: read-out: IC50 (human PKal)
Protocol: Determination of the IC50 for Plasma Kallikrein
(§1) Human plasma kallikrein (Protogen) was incubated at 25° C. with the fluorogenic substrate H-DPro-Phe-Arg-AFC and various concentrations of the test compound. Residual enzyme activity (initial rate of reaction) was determined by measuring the change in […] at 410 nm and the IC50 value for the test compound was determined.

Human KLK1 = Human KLK1 (Homo sapiens (Human), UniProt P06870); experiment: Determination of the IC50 for KLK1; details: human KLK1, 25° C., substrate H-DVal-Leu-Arg-AFC
Protocol: Determination of the IC50 for KLK1
as §1, with “KLK1 (Callbiochem)” for “plasma kallikrein (Protogen)”, “H-DVal-Leu-Arg-AFC” for “H-DPro-Phe-Arg-AFC”

Human FXIa = Human FXIa (Homo sapiens (Human), UniProt P03951); experiment: Determination of the % inhibition for FXIa; details: 40 μM of the test compound, human FXIa, 25° C.; read-out: % Inhibition @ 40 μM (human FXIa)
Protocol: Determination of the % Inhibition for FXIa
Human FXIa (Enzyme Research Laboratories) was incubated at 25° C. with the fluorogenic substrate Z-Gly-Pro-Arg-AFC and 40 μM of the test compound. Residual enzyme activity (initial rate of reaction) was determined by measuring the change in […].

Chain of Human FXIa (P03951 388-625 limits assumed): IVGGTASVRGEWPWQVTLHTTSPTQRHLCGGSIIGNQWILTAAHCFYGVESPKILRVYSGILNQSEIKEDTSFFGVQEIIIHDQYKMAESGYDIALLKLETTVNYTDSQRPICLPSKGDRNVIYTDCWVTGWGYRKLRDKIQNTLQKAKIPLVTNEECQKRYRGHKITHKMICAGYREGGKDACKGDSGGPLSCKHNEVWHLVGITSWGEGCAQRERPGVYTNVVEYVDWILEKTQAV
Chain of Human FXIa (P03951 19-387 partner limits assumed): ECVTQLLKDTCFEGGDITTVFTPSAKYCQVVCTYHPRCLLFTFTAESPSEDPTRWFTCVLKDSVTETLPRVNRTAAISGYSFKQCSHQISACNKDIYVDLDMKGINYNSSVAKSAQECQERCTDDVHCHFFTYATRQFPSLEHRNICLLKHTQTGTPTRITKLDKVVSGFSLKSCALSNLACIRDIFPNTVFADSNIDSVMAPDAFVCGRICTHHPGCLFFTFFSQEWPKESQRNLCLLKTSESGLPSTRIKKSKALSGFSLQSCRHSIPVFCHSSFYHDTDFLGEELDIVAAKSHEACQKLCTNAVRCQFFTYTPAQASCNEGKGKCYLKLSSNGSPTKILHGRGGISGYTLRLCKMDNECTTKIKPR
Chain of Human KLK1 (P06870 25-262): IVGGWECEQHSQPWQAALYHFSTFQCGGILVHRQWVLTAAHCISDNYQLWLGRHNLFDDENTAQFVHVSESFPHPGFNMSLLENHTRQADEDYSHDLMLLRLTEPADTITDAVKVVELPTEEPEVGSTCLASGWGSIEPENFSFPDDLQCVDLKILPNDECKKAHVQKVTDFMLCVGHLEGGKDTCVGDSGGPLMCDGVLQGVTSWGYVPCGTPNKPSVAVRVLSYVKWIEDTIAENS
Chain of Human plasma kallikrein (P03952 391-638): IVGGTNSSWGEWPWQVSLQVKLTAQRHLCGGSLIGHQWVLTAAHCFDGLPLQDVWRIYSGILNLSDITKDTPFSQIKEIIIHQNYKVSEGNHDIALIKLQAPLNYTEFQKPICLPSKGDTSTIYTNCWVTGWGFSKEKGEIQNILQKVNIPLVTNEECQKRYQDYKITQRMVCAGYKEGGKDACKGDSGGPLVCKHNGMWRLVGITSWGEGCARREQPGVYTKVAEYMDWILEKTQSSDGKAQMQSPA
Chain of Human plasma kallikrein (P03952 20-390 partner): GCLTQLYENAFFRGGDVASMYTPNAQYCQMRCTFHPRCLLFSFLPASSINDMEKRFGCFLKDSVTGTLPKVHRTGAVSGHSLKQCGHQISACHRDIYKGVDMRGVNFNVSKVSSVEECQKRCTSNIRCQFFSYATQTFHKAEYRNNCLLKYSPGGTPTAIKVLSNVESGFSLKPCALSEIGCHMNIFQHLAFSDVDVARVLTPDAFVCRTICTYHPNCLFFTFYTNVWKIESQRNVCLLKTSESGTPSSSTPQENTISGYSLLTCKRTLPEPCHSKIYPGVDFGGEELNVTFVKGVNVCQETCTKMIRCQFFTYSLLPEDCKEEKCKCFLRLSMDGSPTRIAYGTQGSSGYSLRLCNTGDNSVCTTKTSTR

IC50 (Human plasma kallikrein)	IC50 (Human KLK1)	inhibition at 40 µM (Human FXIa)	SMILES
0.71 µM	> 40 µM	0%	CC(=O)N(C)Cc1ccc(Cn2cc(C(=O)NCCOc3cccc(Cl)c3)c(N)n2)cc1 [Example 82, 3-amino-N-[2-(3-chlorophenoxy)ethyl]-1-({4-[(N-methylacetamido)methyl]phenyl}methyl)pyrazole-4-carboxamide]
0.298 µM	> 40 µM	0%	CN(C)C(=O)N(C)Cc1ccc(Cn2cc(C(=O)NCCOc3cccc(Cl)c3)c(N)n2)cc1 [Example 83, 3-amino-N-[2-(3-chlorophenoxy)ethyl]-1-[(4-{[(dimethylcarbamoyl)(methyl)amino]methyl}phenyl)methyl]pyrazole-4-carboxamide]
0.731 µM	> 40 µM	3%	CC(C)C(=O)N(C)Cc1ccc(Cn2cc(C(=O)NCCOc3cccc(Cl)c3)c(N)n2)cc1 [Example 84, 3-amino-N-[2-(3-chlorophenoxy)ethyl]-1-({4-[(N,2-dimethylpropanamido)methyl]phenyl}methyl)pyrazole-4-carboxamide]
0.0302 µM	> 40 µM	0%	Nc1nn(Cc2ccc(Cn3cccnc3=O)cc2)cc1C(=O)NCCOc1cccc(Cl)c1 [Example 86, 3-amino-N-[2-(3-chlorophenoxy)ethyl]-1-({4-[(2-oxopyrimidin-1-yl)methyl]phenyl}methyl)pyrazole-4-carboxamide]
0.78 µM	> 40 µM	0%	CN(Cc1ccc(Cn2cc(C(=O)NCCOc3cccc(Cl)c3)c(N)n2)cc1)c1ccccn1 [Example 87, 3-amino-N-[2-(3-chlorophenoxy)ethyl]-1-[(4-{[methyl(pyridin-2-yl)amino]methyl}phenyl)methyl]pyrazole-4-carboxamide]
9.18 µM	> 40 µM	0%	Nc1nn(Cc2ccc(-n3cccn3)nc2)cc1C(=O)NCCOc1cccc(Cl)c1 [Example 88, 3-amino-N-[2-(3-chlorophenoxy)ethyl]-1-{[6-(pyrazol-1-yl)pyridin-3-yl]methyl}pyrazole-4-carboxamide]
3.35 µM	> 40 µM	33%	Cc1cnn(-c2ccc(Cn3cc(C(=O)NCCOc4cccc(Cl)c4)c(N)n3)cn2)c1 [Example 89, 3-amino-N-[2-(3-chlorophenoxy)ethyl]-1-{[6-(4-methylpyrazol-1-yl)pyridin-3-yl]methyl}pyrazole-4-carboxamide]
> 10 µM	> 40 µM	0%	Nc1nn(Cc2nc(Cc3ccccc3)no2)cc1C(=O)NCCOc1cccc(Cl)c1 [Example 90, 3-amino-1-[(3-benzyl-1,2,4-oxadiazol-5-yl)methyl]-N-[2-(3-chlorophenoxy)ethyl]pyrazole-4-carboxamide]
3.78 µM	> 40 µM	0%	Nc1nn(Cc2ccnc(-c3cccnc3)c2)cc1C(=O)NCCOc1cccc(Cl)c1 [Example 91, 3-amino-N-[2-(3-chlorophenoxy)ethyl]-1-{[2-(pyridin-3-yl)pyridin-4-yl]methyl}pyrazole-4-carboxamide]
> 10 µM	> 10 µM	2%	Nc1nn(Cc2ccc3[nH]ncc3c2)cc1C(=O)NCCOc1cccc(Cl)c1 [Example 92, 3-amino-N-[2-(3-chlorophenoxy)ethyl]-1-(1H-indazol-5-ylmethyl)pyrazole-4-carboxamide]
> 10 µM	> 40 µM	2%	Cn1ncc2cc(Cn3cc(C(=O)NCCOc4cccc(Cl)c4)c(N)n3)ccc21 [Example 93, 3-amino-N-[2-(3-chlorophenoxy)ethyl]-1-[(1-methylindazol-5-yl)methyl]pyrazole-4-carboxamide]
0.0038 µM	> 40 µM	0%	Nc1nn(Cc2ccc(Cn3ccccc3=O)cc2)cc1C(=O)N[C@H]1CCN(c2cccc(Cl)c2)C1 [Example 105, 3-amino-N-[(3S)-1-(3-chlorophenyl)pyrrolidin-3-yl]-1-({4-[(2-oxopyridin-1-yl)methyl]phenyl}methyl)pyrazole-4-carboxamide]
0.684 µM	> 40 µM	4%	Nc1nn(Cc2ccc(Cn3ccccc3=O)cc2)cc1C(=O)N[C@@H]1CCN(c2cccc(Cl)c2)C1 [Example 106, 3-amino-N-[(3R)-1-(3-chlorophenyl)pyrrolidin-3-yl]-1-({4-[(2-oxopyridin-1-yl)methyl]phenyl}methyl)pyrazole-4-carboxamide]
0.0048 µM	> 40 µM	2%	Nc1nn(Cc2ccc(Cn3ccccc3=O)cc2)cc1C(=O)N[C@H]1CCN(c2cccc(Cl)c2)C1=O [Example 107, 3-amino-N-[(3S)-1-(3-chlorophenyl)-2-oxopyrrolidin-3-yl]-1-({4-[(2-oxopyridin-1-yl)methyl]phenyl}methyl)pyrazole-4-carboxamide]
0.299 µM	> 40 µM	0%	Nc1nn(Cc2ccc(Cn3ccccc3=O)cc2)cc1C(=O)N[C@@H]1CCN(Cc2cccc(Cl)c2)C1 [Example 108, 3-amino-N-[(3R)-1-[(3-chlorophenyl)methyl]pyrrolidin-3-yl]-1-({4-[(2-oxopyridin-1-yl)methyl]phenyl}methyl)pyrazole-4-carboxamide]
0.384 µM	> 40 µM	0%	Nc1nn(Cc2ccc(Cn3ccccc3=O)cc2)cc1C(=O)N[C@H]1CCN(Cc2cccc(Cl)c2)C1 [Example 109, 3-amino-N-[(3S)-1-[(3-chlorophenyl)methyl]pyrrolidin-3-yl]-1-({4-[(2-oxopyridin-1-yl)methyl]phenyl}methyl)pyrazole-4-carboxamide]
0.004 µM	> 40 µM	13%	Nc1nn(Cc2ccc(Cn3ccccc3=O)cc2)cc1C(=O)N[C@@H]1CCN(c2cccc(Cl)c2)C1=O [Example 110, 3-amino-N-[(3R)-1-(3-chlorophenyl)-2-oxopyrrolidin-3-yl]-1-({4-[(2-oxopyridin-1-yl)methyl]phenyl}methyl)pyrazole-4-carboxamide]
0.0421 µM	> 40 µM	23%	Nc1nn(Cc2ccc(Cn3ccccc3=O)cc2)cc1C(=O)N[C@H]1CC(=O)N(c2cccc(Cl)c2)C1 [Example 111, 3-amino-N-[(3S)-1-(3-chlorophenyl)-5-oxopyrrolidin-3-yl]-1-({4-[(2-oxopyridin-1-yl)methyl]phenyl}methyl)pyrazole-4-carboxamide]
7.46 µM	> 40 µM	29%	Nc1nn(Cc2ccc(Cn3ccccc3=O)cc2)cc1C(=O)N[C@H]1CCN(c2cc(Cl)ccn2)C1 [Example 112, 3-amino-N-[(3S)-1-(4-chloropyridin-2-yl)pyrrolidin-3-yl]-1-({4-[(2-oxopyridin-1-yl)methyl]phenyl}methyl)pyrazole-4-carboxamide]
0.316 µM	> 40 µM	3%	C[C@H](COc1cccc(Cl)c1)NC(=O)c1cn(Cc2ccc(Cn3ccccc3=O)cc2)nc1N [Example 113, 3-amino-N-[(2R)-1-(3-chlorophenoxy)propan-2-yl]-1-({4-[(2-oxopyridin-1-yl)methyl]phenyl}methyl)pyrazole-4-carboxamide]
0.14 µM	> 40 µM	0%	C[C@@H](COc1cccc(Cl)c1)NC(=O)c1cn(Cc2ccc(Cn3ccccc3=O)cc2)nc1N [Example 114, 3-amino-N-[(2S)-1-(3-chlorophenoxy)propan-2-yl]-1-({4-[(2-oxopyridin-1-yl)methyl]phenyl}methyl)pyrazole-4-carboxamide]
0.39 µM	> 40 µM	0%	C[C@H](NC(=O)c1cn(Cc2ccc(Cn3ccccc3=O)cc2)nc1N)C(=O)N(C)c1cccc(Cl)c1 [Example 116, (2S)-2-{[3-amino-1-({4-[(2-oxopyridin-1-yl)methyl]phenyl}methyl)pyrazol-4-yl]formamido}-N-(3-chlorophenyl)-N-methylpropanamide]
3.02 µM	> 40 µM	4%	C[C@@H](NC(=O)c1cn(Cc2ccc(Cn3ccccc3=O)cc2)nc1N)C(=O)N(C)c1cccc(Cl)c1 [Example 117, (2R)-2-{[3-amino-1-({4-[(2-oxopyridin-1-yl)methyl]phenyl}methyl)pyrazol-4-yl]formamido}-N-(3-chlorophenyl)-N-methylpropanamide]
